pEC50, pIC50: −log10 of the molar value.
Key:
[1] = molecular target: T1, Lutropin-choriogonadotropic hormone receptor (Homo sapiens, UniProt P22888); test: Agonist activity at human luteinizing hormone receptor incubated for 60 mins by cell based TR-FRET assay
[2] = test system: Rattus norvegicus; test: Reversal of human luteinizing hormone-induced suppression of aromatase mRNA expression in cetrorelix-treated iv dosed female rat after 2 hrs by Taqman probe based RT-PCR analysis; assay type: functional, organism-based
[3] = test system: Rattus norvegicus; test: Downregulation of human luteinizing hormone-induced RUNX1 mRNA expression in cetrorelix-treated iv dosed female rat after 2 hrs by Taqman probe based RT-PCR analysis; assay type: functional, organism-based
[4] = test system: Rattus norvegicus; test: Downregulation of human luteinizing hormone-induced progesterone expression in plasma of cetrorelix-treated female rat at 4.5 mg/kg, iv after 2 hrs by radioimmunoassay method (reference value: 243 nM); assay type: functional
[5] = molecular target: T1, Lutropin-choriogonadotropic hormone receptor; test: (§1) Negative allosteric modulation of human luteinizing hormone receptor assessed as Emax for glycoprotein human luteinizing hormone-induced agonist activity at 0.84 nM to 17 uM preincubated for 20 mins followed by 4 times EC80 of agonist addition and measured after 60 mins by cell based TR-FRET assay relative to control
[6] = molecular target: T1, Lutropin-choriogonadotropic hormone receptor; test: as §1, with “by 16” for “by 4”; settings: at 0.00084 to 17 µM
[7] = molecular target: T1, Lutropin-choriogonadotropic hormone receptor; test: as §1, with “reduction in” for “Emax for”, “activity” for “activity at 0.84 nM to 17 uM”, “10” for “4”
[8] = molecular target: T1, Lutropin-choriogonadotropic hormone receptor; test: as §1, with “reduction in” for “Emax for”, “activity” for “activity at 0.84 nM to 17 uM”, “16” for “4”
[9] = molecular target: T1, Lutropin-choriogonadotropic hormone receptor; test: Negative allosteric modulation of human luteinizing hormone receptor assessed as Emax for Org 43553-induced agonist activity at 0.84 nM to 17 uM preincubated for 20 mins followed by 10 times EC80 of agonist addition and measured after 60 mins by cell based TR-FRET assay relative to control
[10] = test system: Rattus norvegicus; test: Downregulation of human luteinizing hormone-induced progesterone expression in plasma of cetrorelix-treated iv dosed female rat after 2 hrs by radioimmunoassay method; assay type: functional, organism-based
[11] = test system: Rattus norvegicus; test: Downregulation of human luteinizing hormone-induced testosterone expression in plasma of cetrorelix-treated iv dosed male rat at after 2 hrs by radioimmunoassay method; assay type: functional, organism-based
[12] = test system: Rattus norvegicus; test: Downregulation of estradiol level in proestrus staged-female rat serum at 18 mg/kg, po administered once daily for 8 days and measured by radioimmunoassay method (reference value: 125 pmol/L); assay type: functional
[13] = Free plasma concentration in female rat at 4.5 to 72 mg/kg, po administered once daily for 8 days; assay type: ADME, organism-based; settings: in vivo, 192 h

T1 sequence (P22888 whole entry): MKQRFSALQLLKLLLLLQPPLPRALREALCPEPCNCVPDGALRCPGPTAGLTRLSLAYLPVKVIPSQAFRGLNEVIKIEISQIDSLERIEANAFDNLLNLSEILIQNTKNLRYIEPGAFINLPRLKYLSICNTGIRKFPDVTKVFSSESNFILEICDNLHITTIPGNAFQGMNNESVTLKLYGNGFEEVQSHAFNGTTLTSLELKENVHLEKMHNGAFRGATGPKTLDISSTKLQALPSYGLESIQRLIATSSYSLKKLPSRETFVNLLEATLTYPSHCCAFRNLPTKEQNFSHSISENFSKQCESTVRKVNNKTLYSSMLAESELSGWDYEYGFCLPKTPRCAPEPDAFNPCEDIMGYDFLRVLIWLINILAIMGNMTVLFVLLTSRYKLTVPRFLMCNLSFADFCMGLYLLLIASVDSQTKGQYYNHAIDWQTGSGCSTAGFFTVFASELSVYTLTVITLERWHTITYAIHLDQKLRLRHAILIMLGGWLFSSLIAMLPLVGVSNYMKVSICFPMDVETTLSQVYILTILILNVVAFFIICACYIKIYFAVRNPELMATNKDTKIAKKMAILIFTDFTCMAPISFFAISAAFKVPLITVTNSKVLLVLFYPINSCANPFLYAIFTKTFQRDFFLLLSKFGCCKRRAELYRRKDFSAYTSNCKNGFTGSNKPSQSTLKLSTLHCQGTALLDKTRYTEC

For `O=C(Nc1ccc(Oc2ccc(F)cc2)cc1)N1CCc2ncccc2[C@@H]1c1ccc(Cl)cc1`, the pEC50 [1] was < 4.80, the Activity [2] was “Dose-dependent effect” and the Activity [3] was “Dose-dependent effect”. For the same molecule, the Activity [4] was 76 nM, the Emax [5] was 99% and the Emax [6] was 109%. It also gave a pIC50 [7] of 5.66, a pIC50 [8] of 5.66 and an Emax [9] of 102%. For the same molecule, the Activity [10] was “Dose-dependent effect”, the Activity [11] was “Dose-dependent effect” and the Activity [12] was 70 pmol/L. For the same molecule, the “Cp(f)” value [13] was 24 nM.
